According to ChEMBL document CHEMBL3734743, “Potent complement C3a receptor agonists derived from oxazole amino acids: Structure-activity relationships” (Bioorg Med Chem Lett, 2015):
The source made the active and inactive calls. The calls are words filed in the database; no cut-off is given here.

Columns and labels:
[1] = target: T1, C3a anaphylatoxin chemotactic receptor (Homo sapiens, UniProt Q16581); experiment: Displacement of [125I]-C3a from C3aR in human MDM cells after 60 mins by microbeta scintillation counting analysis; type: cell-based
T1 sequence (Q16581 whole entry): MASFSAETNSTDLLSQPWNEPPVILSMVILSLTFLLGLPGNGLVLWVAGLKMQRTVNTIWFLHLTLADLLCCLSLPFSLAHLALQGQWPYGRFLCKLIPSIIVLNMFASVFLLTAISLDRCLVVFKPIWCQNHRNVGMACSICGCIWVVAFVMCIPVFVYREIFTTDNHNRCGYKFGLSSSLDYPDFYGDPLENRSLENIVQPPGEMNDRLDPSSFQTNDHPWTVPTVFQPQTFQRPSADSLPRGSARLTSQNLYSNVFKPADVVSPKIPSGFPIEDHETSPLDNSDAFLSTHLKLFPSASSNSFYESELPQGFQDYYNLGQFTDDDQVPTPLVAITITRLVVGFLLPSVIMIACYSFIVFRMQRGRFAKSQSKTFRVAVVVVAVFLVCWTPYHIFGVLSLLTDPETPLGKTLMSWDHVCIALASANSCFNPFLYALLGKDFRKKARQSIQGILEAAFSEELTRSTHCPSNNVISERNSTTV

[2] = target: T2, C5a anaphylatoxin chemotactic receptor 1 (Homo sapiens) (UniProt P21730); experiment: Displacement of [125I]-C5a from C5aR in human MDM cells at 20 uM after 60 mins by microbeta scintillation counting analysis; type: cell-based
T2 sequence (whole entry): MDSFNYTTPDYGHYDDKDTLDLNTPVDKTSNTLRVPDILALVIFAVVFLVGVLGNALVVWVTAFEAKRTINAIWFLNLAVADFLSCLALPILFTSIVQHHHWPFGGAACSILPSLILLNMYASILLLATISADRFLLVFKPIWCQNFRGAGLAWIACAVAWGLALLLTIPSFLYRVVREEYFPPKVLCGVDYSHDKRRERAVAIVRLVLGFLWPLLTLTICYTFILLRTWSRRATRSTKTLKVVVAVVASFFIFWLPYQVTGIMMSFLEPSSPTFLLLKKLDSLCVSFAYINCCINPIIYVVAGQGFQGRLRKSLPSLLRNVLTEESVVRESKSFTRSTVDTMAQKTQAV

[3] = target: T3, C3a anaphylatoxin chemotactic receptor (Homo sapiens) (UniProt Q16581); experiment: Displacement of [125I]-C3a from C3aR in human MDM cells at 20 uM after 60 mins by microbeta scintillation counting analysis; type: cell-based
T3 sequence (whole entry): T1 sequence (Q16581 whole entry)

[4] = target: T3, C3a anaphylatoxin chemotactic receptor (Homo sapiens); experiment: Agonist activity at C3aR in human MDM cells assessed as inhibition of C3a-induced Ca2+ response at 10 uM measured for 60 secs by fluorescence assay relative to 100 nM C3a; type: functional, cell-based
[5] = target: T3, C3a anaphylatoxin chemotactic receptor (Homo sapiens); experiment: Agonist activity at C3aR in human MDM cells assessed as intracellular calcium efflux at 1 uM measured for 60 secs by fluorescence based receptor desensitization assay; type: functional, cell-based
[6] = target: T1, C3a anaphylatoxin chemotactic receptor; experiment: Agonist activity at C3aR in human MDM cells assessed as inhibition of C3a-induced Ca2+ response measured for 60 secs by fluorescence assay; type: functional, cell-based

Row | SMILES | IC50 [1] [nM] | inhibition [2] | inhibition [3] | inhibition [4] [%] | Activity [5] | EC50 [6] [nM]
1 | CC[C@H](C)[C@H](NC(=O)Cc1c[nH]c2ccccc12)c1nc(C(=O)N[C@@H](CCCNC(=N)N)C(=O)O)co1 | 152 | inactive |  |  |  | 
2 | CC[C@H](C)[C@H](NC(=O)c1ccccc1)c1nc(C(=O)N[C@@H](CCCNC(=N)N)C(=O)O)co1 | 27 | inactive |  |  |  | 
3 | COc1cccc(C(=O)N[C@@H](CC(C)C)c2nc(C(=O)N[C@@H](CCCNC(=N)N)C(=O)O)c(C)o2)c1 |  | inactive | inactive | 134 |  | 
4 | Cc1ccc(NC(=O)N[C@@H](CC(C)C)c2nc(C(=O)N[C@@H](CCCNC(=N)N)C(=O)O)c(C)o2)cc1 |  |  | inactive | 64 |  | 
5 | CC(C)C[C@H](NC(=O)C(C)c1ccc(N2Cc3ccccc3C2=O)cc1)c1nc(C(=O)N[C@@H](CCCNC(=N)N)C(=O)O)co1 (stereo not given in full) | 450 | inactive |  |  |  | 
6 | COc1ccc(CC(=O)N[C@@H](CC(C)C)c2nc(C(=O)N[C@@H](CCCNC(=N)N)C(=O)O)c(C)o2)cc1 |  | inactive | 40% | 26 |  | 
7 | Cc1oc([C@H](CC(C)C)NC(=O)c2cccnc2)nc1C(=O)N[C@@H](CCCNC(=N)N)C(=O)O |  | inactive | 29% | 68 |  | 
8 | Cc1oc([C@H](CC(C)C)NC(=O)c2ccc(Oc3ccccc3)cc2)nc1C(=O)N[C@@H](CCCNC(=N)N)C(=O)O |  | inactive | 32% | 68 |  | 
9 | CC[C@H](C)[C@H](NC(=O)c1cncc(Br)c1)c1nc(C(=O)N[C@@H](CCCNC(=N)N)C(=O)O)co1 | 5 | inactive |  |  | inactive | 
10 | Cc1oc([C@H](CC(C)C)NC(=O)NCc2ccccc2)nc1C(=O)N[C@@H](CCCNC(=N)N)C(=O)O |  | inactive | 61% | 50 |  | 
11 | CC[C@H](C)[C@H](NC(=O)C(c1ccccc1)c1ccccc1)c1nc(C(=O)N[C@@H](CCCNC(=N)N)C(=O)O)co1 | 137 | inactive |  |  |  | 
12 | Cc1oc([C@H](CC(C)C)NC(=O)c2cc3ccccc3[nH]2)nc1C(=O)N[C@@H](CCCNC(=N)N)C(=O)O |  | inactive | 26% | 56 |  | 
13 | CC[C@H](C)[C@H](NC(=O)C1CCCc2ccccc21)c1nc(C(=O)N[C@@H](CCCNC(=N)N)C(=O)O)co1 (stereo not given in full) | 104 | inactive |  |  |  | 
14 | CC[C@H](C)[C@H](NC(=O)c1cccc(OC)c1OC)c1nc(C(=O)N[C@@H](CCCNC(=N)N)C(=O)O)co1 | 710 | inactive |  |  |  | 
15 | COc1ccc(CC(=O)N[C@@H](CC(C)C)c2nc(C(=O)N[C@@H](CCCNC(=N)N)C(=O)O)c(C)o2)cc1OC |  | inactive | 65% | 67 |  | 
16 | Cc1oc([C@H](CC(C)C)NC(=O)c2cc3ccccc3o2)nc1C(=O)N[C@@H](CCCNC(=N)N)C(=O)O |  | inactive | 19% | 84 |  | 
17 | Cc1oc([C@H](CC(C)C)NC(=O)S(=O)(=O)c2ccccc2)nc1C(=O)N[C@@H](CCCNC(=N)N)C(=O)O |  | inactive | 44% | 103 |  | 
18 | Cc1oc([C@H](CC(C)C)NC(=O)CCC(C)C)nc1C(=O)N[C@@H](CCCNC(=N)N)C(=O)O |  | inactive | inactive | 95 |  | 
19 | CC[C@H](C)[C@H](NC(=O)c1ccc(N(C)C)cc1)c1nc(C(=O)N[C@@H](CCCNC(=N)N)C(=O)O)co1 | 800 | inactive |  |  |  | 
20 | COc1ccc(CCC(=O)N[C@@H](CC(C)C)c2nc(C(=O)N[C@@H](CCCNC(=N)N)C(=O)O)c(C)o2)cc1 |  | inactive | 44% | 44 |  | 
21 | CC[C@H](C)[C@H](NC(=O)C1(C(C)C)C=CCC=C1)c1nc(C(=O)N[C@@H](CCCNC(=N)N)C(=O)O)co1 | 754 | inactive |  |  |  | 740
22 | CC(C)Cc1ccc(C(C)C(=O)N[C@@H](CC(C)C)c2nc(C(=O)N[C@@H](CCCNC(=N)N)C(=O)O)co2)cc1 (stereo not given in full) | 1030 | inactive |  |  |  | 

Row | SMILES | IC50 [1] [nM] | inhibition [2] | inhibition [3] | inhibition [4] [%] | Activity [5] | EC50 [6] [nM]
23 | Cc1oc([C@H](CC(C)C)NC(=O)c2cncc(Br)c2)nc1C(=O)N[C@@H](CCCNC(=N)N)C(=O)O |  | inactive | inactive | 105 |  | 
24 | CC(C)C[C@H](NC(=O)OC(C)(C)C)c1nc(C(=O)N[C@@H](CCCNC(=N)N)C(=O)O)co1 | 20 | inactive |  |  | inactive | 19
25 | CC(C)C[C@H](NC(=O)C1c2ccccc2-c2ccccc21)c1nc(C(=O)N[C@@H](CCCNC(=N)N)C(=O)O)co1 | 142 | inactive |  |  |  | 
26 | CC[C@H](C)[C@H](NC(=O)c1ccc(C(=O)c2ccccc2)cc1)c1nc(C(=O)N[C@@H](CCCNC(=N)N)C(=O)O)co1 | 157 | inactive |  |  |  | 
27 | Cc1oc([C@H](CC(C)C)NC(=O)CC2CCCCC2)nc1C(=O)N[C@@H](CCCNC(=N)N)C(=O)O |  | inactive | 26% | 69 |  | 
28 | COc1cccc(CC(=O)N[C@@H](CC(C)C)c2nc(C(=O)N[C@@H](CCCNC(=N)N)C(=O)O)c(C)o2)c1 |  | inactive | 41% | 87 |  | 
29 | Cc1oc([C@H](CC(C)C)NC(=O)c2cc3ccccc3s2)nc1C(=O)N[C@@H](CCCNC(=N)N)C(=O)O |  | inactive | 14% | 62 |  | 
30 | Cc1oc([C@H](CC(C)C)NC(=O)c2ccncc2)nc1C(=O)N[C@@H](CCCNC(=N)N)C(=O)O |  | inactive | inactive | 109 |  | 
31 | CC[C@H](C)[C@H](NC(=O)C(C)c1ccc2cc(OC)ccc2c1)c1nc(C(=O)N[C@@H](CCCNC(=N)N)C(=O)O)co1 (stereo not given in full) |  | inactive |  |  |  | 
32 | CC[C@H](C)[C@H](NC(=O)c1ccccc1Oc1ccccc1)c1nc(C(=O)N[C@@H](CCCNC(=N)N)C(=O)O)co1 | 55 | inactive |  |  | Active | 
33 | CC[C@H](C)[C@H](NC(=O)c1ccc(OC)cc1OC)c1nc(C(=O)N[C@@H](CCCNC(=N)N)C(=O)O)co1 | 870 | inactive |  |  |  | 
34 | COc1ccccc1CC(=O)N[C@@H](CC(C)C)c1nc(C(=O)N[C@@H](CCCNC(=N)N)C(=O)O)c(C)o1 |  | inactive | 43% | 81 |  | 
35 | Cc1oc([C@H](CC(C)C)NC(=O)c2ccc(/N=N/c3ccccc3)cc2)nc1C(=O)N[C@@H](CCCNC(=N)N)C(=O)O |  | inactive | 49% | 48 |  | 
36 | Cc1oc([C@H](CC(C)C)NC(=O)c2ccccn2)nc1C(=O)N[C@@H](CCCNC(=N)N)C(=O)O |  | inactive | 31% | 77 |  | 
37 | COc1ccc(OC)c(CC(=O)N[C@@H](CC(C)C)c2nc(C(=O)N[C@@H](CCCNC(=N)N)C(=O)O)c(C)o2)c1 |  | inactive | 42% | 69 |  | 
38 | Cc1oc([C@H](CC(C)C)NC(=O)CC(C)(C)C)nc1C(=O)N[C@@H](CCCNC(=N)N)C(=O)O |  | inactive | 44% | 70 |  | 
39 | CC(C)C[C@H](NC(=O)Cc1ccc(F)cc1)c1nc(C(=O)N[C@@H](CCCNC(=N)N)C(=O)O)co1 | 102 | inactive |  |  | inactive | 
40 | Cc1oc([C@H](CC(C)C)NC(=O)C2CCCCC2)nc1C(=O)N[C@@H](CCCNC(=N)N)C(=O)O |  | inactive | 39% | 107 |  | 
41 | Cc1oc([C@H](CC(C)C)NC(=O)c2ccc(C(F)(F)F)cc2)nc1C(=O)N[C@@H](CCCNC(=N)N)C(=O)O |  | inactive | 61% | 50 |  | 
42 | CC[C@H](C)[C@H](NC(=O)CCC(=O)c1ccc(-c2ccccc2)cc1)c1nc(C(=O)N[C@@H](CCCNC(=N)N)C(=O)O)co1 | 150 | inactive |  |  | inactive | 
43 | CC[C@H](C)[C@H](NC(=O)OC(C)(C)C)c1nc(C(=O)N[C@@H](CCCNC(=N)N)C(=O)O)co1 |  | inactive |  |  | inactive | 
